Results on 26 compounds are retold here after patent US8008312B2, “CXCR4 antagonists for the treatment of HIV infection” (Emory University, priority 2005, dated 2011).

The nature of one series: Half-life in mice. Conditions: mouse, in vivo, read-out: t1/2 (min) in mice.
Series [1] addresses T1, CXCR4 (Homo sapiens, UniProt P61073). Put plainly: Competition screening using the native CXCR4 ligand SDF-1. Format: binding. The following applies: competition with SDF-1.
The subject of the next series is HXB2. Put plainly: Phenoscreen viral entry inhibition assay, HXB2. Format: cell-based, HIV. The protocol: (§1) A selected set of compounds were tested for their ability to inhibit the cellular entry of T-tropic HIV. The assay for this inhibition has been carried out on a contractural basis at Monogram Biosciences, Inc. using their well established Phenoscreen™ assay. Briefly, HIV strains of interest are tagged with a luciferase indicator gene to create an appropriate test vector. The test vector is amplified through transfection and the resulting virus is incubated in the presence of target host cells where intracellular florescence activity then becomes a measure of infection. Amplified virus is exposed to target host cells in the presence of a range of test drug concentrations to determine IC50 measurements of entry inhibition. A modification of this test has been further reapplied as a novel drug assay that has been used in partnership with a number of pharmaceutical companies to test the effectiveness of novel entry inhibitors that target specific chemokines. It can used to detect activity against T-tropic, M-tropic, and dual-tropic viruses and Monogram Biosciences has a large bank of over 10,000 different virus strains to ultimately asses the range of applicability of our CXCR4 antagonists. Certain compounds have been tested to establish efficacy in a number of viral strains.

Series [2] addresses T1, CXCR4. Put plainly: SDF-1 stimulated phosphorylation of Akt in MDA-MB-231 cells. The class given is cell-based. The following applies: 100 ng/ml SDF-1, 30 minutes; FIG. 2. Here is the method:
FIG. 2 is an image of a western blot showing phosphorylation of Akt. Incubating MDA-MB-231 cells with 100 ng/ml of SDF-1 for 30 min stimulated phosphorylation of Akt. This activation was blocked with TN14003 or AMD3100 in a dose-dependent manner.
CXCR4/SDF-1 interaction activates PI3K/Akt and Ras/Raf/MEK/Erk pathways in a Gas protein (PTX-sensitive)-dependent manner. Experiments were conducted to determine the effect of blocking CXCR4/SDF-1 interaction by either TN14003 or AMD3100 at different concentrations (0, 0.01, 0.1, 1, 10, 100, 1000 nM) on phosphorylations of Akt and Erk1/2 signaling. Incubating cells with 100 ng/ml of SDF-1 for 30 minutes activated Akt. […] However, the increase in Erk1/2 phosphorylation by SDF-1 was not significant as the increase in Akt phosphorylation.

Another series concerns Vrs-1. Put plainly: Phenoscreen viral entry inhibition assay, Vrs-1. Format: cell-based, HIV. Here is the method:
as §1

Another series deals with MT-4 cells. Conditions: cited from earlier work.
Series [3] deals with T1, CXCR4. Put plainly: CXCR4 protein levels after treating cells. Format: cell-based.
The test system of the next series is NL4-3. Put plainly: Phenoscreen viral entry inhibition assay, NL4-3. Format: cell-based, HIV. Here is the method: as §1
For another series, the system named is Vrs-3. The experiment in a line: Phenoscreen viral entry inhibition assay, Vrs-3. Format: cell-based, HIV. The protocol:
as §1

For a further series, the system named is SHIV. The experiment in a line: Phenoscreen viral entry inhibition assay, SHIV. The class given is cell-based. The protocol:
as §1

In series [4] the target is T1, CXCR4. The experiment in a line: SDF-1 stimulated Erk1/2 phosphorylation. Format: cell-based. Conditions: SDF-1 stimulation; data not shown. The source says: CXCR4/SDF-1 interaction activates PI3K/Akt and Ras/Raf/MEK/Erk pathways in a Gas protein (PTX-sensitive)-dependent manner.
A further series has as its system Dual. Put plainly: Phenoscreen viral entry inhibition assay, Dual. Format: cell-based, HIV. Conditions: Human immunodeficiency virus 1, read-out: Viral Entry Inhibition Dual. The protocol: as §1
For the next series, the system named is Vrs-2. Put plainly: Phenoscreen viral entry inhibition assay, Vrs-2. Format: cell-based, HIV. Conditions: Human immunodeficiency virus 1, read-out: Viral Entry Inhibition Vrs-2. Here is the method: as §1
Setting [5] is: Human immunodeficiency virus 1, HXB2, read-out: Viral Entry Inhibition HXB2.
Where [6] appears, read: Human immunodeficiency virus 1, read-out: Viral Entry Inhibition Vrs-1.
The mark [7] stands for this setting: Human immunodeficiency virus 1, NL43, read-out: Viral Entry Inhibition NL4-3.
Setting [8] is: Human immunodeficiency virus 1, read-out: Viral Entry Inhibition Vrs-3.

pIC50: −log10 of the molar value. Where two headings read alike, the source gives them in different places.

T1 sequence (P61073 whole entry): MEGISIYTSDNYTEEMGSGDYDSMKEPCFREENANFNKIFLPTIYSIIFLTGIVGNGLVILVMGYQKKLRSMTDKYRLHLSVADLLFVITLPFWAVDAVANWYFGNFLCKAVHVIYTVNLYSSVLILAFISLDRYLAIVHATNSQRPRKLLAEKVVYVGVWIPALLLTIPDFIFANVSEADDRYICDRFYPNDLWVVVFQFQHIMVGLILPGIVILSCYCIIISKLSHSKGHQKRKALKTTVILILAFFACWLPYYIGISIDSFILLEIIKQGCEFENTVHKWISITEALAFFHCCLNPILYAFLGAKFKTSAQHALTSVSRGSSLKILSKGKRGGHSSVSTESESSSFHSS

One may read the IC50 as the point on the concentration scale where inhibition reaches its midpoint. The low end stands for higher potency, the high end for lower potency. As for `c1cnc(NCc2ccc(CNc3ncccn3)cc2)nc1` [drawing 205], the half-life in “Half-life in mice” was found to be 45 min. Further, the IC50 at CXCR4 [1] was less than 10 nM.

On to TN14003 [reference compound], for which the pIC50 is 8.00 in the series on HXB2 (HXB2 strain, read-out: Viral Entry Inhibition HXB2); 8.00 in the series on Vrs-1 (Vrs-1 strain, read-out: Viral Entry Inhibition Vrs-1); 8.30 in the series on NL4-3 (NL4-3 strain, read-out: Viral Entry Inhibition NL4-3); 7.60 in the series on Vrs-3 (Vrs-3 strain, read-out: Viral Entry Inhibition Vrs-3); 8.15 in the series on SHIV (SHIV). Further, the “concentration blocking Akt activation” value on CXCR4 [2] is recorded as “sub-nano molar concentration”. Besides, the “concentration leading to 50% toxicity” value in the series with MT-4 cells was 410 µM. The “effect on CXCR4 protein levels” value on CXCR4 [3] is given as “did not affect CXCR4 protein levels”. For the same compound, the “concentration attenuating Erk1/2 phosphorylation” value on CXCR4 [4] was “sub-nano molar concentration”.

As for `c1ccc(NCc2ccc(CNc3ncccn3)cc2)cc1` [drawing 214], the half-life in “Half-life in mice” turned out to be 14 min.

For the compound `COc1ccnc(NCc2ccc(CNc3nccc(OC)n3)cc2)n1` [drawing 215], the IC50 on CXCR4 [1] was 10 nM.

As to `COc1cccc(NCc2ccc(CNc3cccc(OC)c3)cc2)c1` [WZ-77], the pIC50 in the series on HXB2 (setting [5]) was less than 4.82; with Vrs-1 (setting [6]), less than 4.82; in the series on NL4-3 (setting [7]), approximately 4.85; with Dual it was less than 4.82; in the series with Vrs-3 (setting [8]) it was less than 4.82; in the series with SHIV it was 5.05. Also, in the series on Vrs-2, the pIC50 is approximately 4.96.

With `OCc1ccc(CNc2ncccn2)cc1` [drawing 206], the IC50 on CXCR4 [1] was less than 10 nM.

The compound `Fc1ccccc1NCc1ccc(CNc2ccccc2F)cc1` [drawing 213] registered an IC50 on CXCR4 [1] of less than 10 nM.

In the case of `c1ccc(NCc2cccc(CNc3ccccn3)c2)nc1` [WZ-48-S], the pIC50 is less than 4.82 in the series with HXB2 (setting [5]); less than 4.82 in the series with Vrs-1 (setting [6]); less than 4.82 with NL4-3 (setting [7]); less than 4.82 in the series with Dual; less than 4.82 in the series with Vrs-3 (setting [8]); approximately 4.96 with SHIV. Further, the pIC50 in the series with Vrs-2 is approximately 4.96.

Regarding `COc1ccnc(NCc2ccc(CNc3nccc(OC)n3)cc2)n1` [WZ-72-S], the pIC50 in the series with HXB2 (setting [5]) was less than 4.82; in the series on Vrs-1 (setting [6]), less than 4.82; in the series with NL4-3 (setting [7]), approximately 4.82; in the series on Dual it was less than 4.82; in the series with Vrs-3 (setting [8]), less than 4.82; in the series with SHIV it was 5.35. Also, the pIC50 with Vrs-2 is approximately 4.92.

At CXCR4 [1], `c1ccc(NCc2ccc(CNc3ccccn3)cc2)nc1` [drawing 204] showed an IC50 of less than 10 nM.

With `c1ccc(NCc2cccc(CNc3ccccc3)c2)cc1` [drawing 209], the half-life in “Half-life in mice” was less than 5 min. Also, the IC50 at CXCR4 [1] was less than 10 nM.

For the compound `Cc1cc(CNc2ccccc2)c(C)cc1CNc1ccccc1` [WZ-9103], the pIC50 in the series on HXB2 (setting [5]) is approximately 4.89; in the series with Vrs-1 (setting [6]), less than 4.82; with NL4-3 (setting [7]), approximately 4.96; in the series on Dual it was less than 4.82; with Vrs-3 (setting [8]) it was approximately 4.82; with SHIV, 5.02. The pIC50 in the series on Vrs-2 is approximately 4.82.

`c1ccc(NCc2ccc(CNc3ncccn3)cc2)cc1` [WZ-67]: the pIC50 was less than 4.82 in the series on HXB2 (setting [5]); less than 4.82 in the series on Vrs-1 (setting [6]); approximately 4.96 with NL4-3 (setting [7]); less than 4.82 in the series with Dual; approximately 4.92 with Vrs-3 (setting [8]); approximately 5.00 with SHIV. The pIC50 in the series on Vrs-2 was approximately 4.96.

`Cc1cc(CNc2ccccc2)c(C)cc1CNc1ccccc1` [drawing 212] registered an IC50 on CXCR4 [1] of more than 100 nM.

Turning to `CC(Nc1ccccc1)c1ccc(C(C)Nc2ccccc2)cc1` (stereo not drawn) [drawing 211], in the series “Half-life in mice”, the half-life was determined as 13.7 min. Moreover, the IC50 on CXCR4 [1] was less than 100 nM.

Turning to `OCc1ccc(CNc2ncccn2)cc1` [WZ-41], the pIC50 was less than 4.82 with HXB2 (setting [5]); less than 4.82 in the series on Vrs-1 (setting [6]); less than 4.82 in the series with NL4-3 (setting [7]); less than 4.82 in the series with Dual; less than 4.82 in the series with Vrs-3 (setting [8]); approximately 4.82 in the series on SHIV. Further, in the series with Vrs-2, the pIC50 is approximately 4.89.

In turn, `c1ccc(CNCc2ccc(CNCc3ccccc3)cc2)cc1` [drawing 210] came in with an IC50 on CXCR4 [1] of less than 100 nM.

With `CC(Nc1ccccc1)c1ccc(C(C)Nc2ccccc2)cc1` (stereo not drawn) [WZ-8225], the pIC50 in the series on HXB2 (setting [5]) is approximately 4.96; with Vrs-1 (setting [6]) it was approximately 4.96; in the series with NL4-3 (setting [7]), approximately 5.00; with Dual it was less than 4.82; in the series with Vrs-3 (setting [8]), approximately 5.00; in the series on SHIV, approximately 5.00. Moreover, in the series on Vrs-2, the pIC50 is approximately 5.00.

On to `c1ccc(NCc2ccc(CNc3ccccc3)cc2)cc1` [drawing 208], for which the half-life in the series “Half-life in mice” stood at 11 min. In addition, the IC50 at CXCR4 [1] was less than 10 nM.

`c1ccc(NCc2cccc(CNc3ccccc3)c2)cc1` [WZ-814-S]: the pIC50 with HXB2 (setting [5]) is approximately 4.82; in the series with Vrs-1 (setting [6]), approximately 4.96; in the series on NL4-3 (setting [7]), approximately 4.96; in the series with Dual, less than 4.82; in the series on Vrs-3 (setting [8]), approximately 4.96; with SHIV it was less than 4.82. For the same compound, the pIC50 with Vrs-2 is approximately 4.96.

Turning to `C1=CC(CN2CCCNCCNCCCNCC2)CC=C1CN1CCCNCCNCCCNCC1` (stereo not drawn) [AMD3100, reference compound], the pIC50 in the series on HXB2 (setting [5]) is 7.89; in the series on Vrs-1 (setting [6]), 7.89; in the series on NL4-3 (setting [7]), 8.10; with Dual, 7.52; in the series with Vrs-3 (setting [8]) it was 7.37; in the series on SHIV, 7.89. Further, the pIC50 in the series on Vrs-2 is 7.82. For the same compound, the “concentration blocking Akt activation” value at CXCR4 [2] was “a few nano molar”. Further, the “effect on CXCR4 protein levels” value at CXCR4 [3] is listed as “did not affect CXCR4 protein levels”. Besides, the “concentration attenuating Erk1/2 phosphorylation” value on CXCR4 [4] worked out at 100 nM.

Regarding `c1ccc(NCc2ccc(CNc3ccccc3)cc2)cc1` [WZ-81810], the pIC50 is less than 4.82 in the series with HXB2 (setting [5]); less than 4.82 in the series with Vrs-1 (setting [6]); less than 4.82 in the series with NL4-3 (setting [7]); less than 4.82 in the series on Dual; less than 4.82 in the series with Vrs-3 (setting [8]); approximately 4.92 with SHIV. For the same compound, the pIC50 with Vrs-2 was approximately 5.00.

Regarding `COc1cccc(NCc2ccc(CNc3cccc(OC)c3)cc2)c1` [drawing 216], the half-life in the series “Half-life in mice” came to 14.3 min. In addition, the IC50 at CXCR4 [1] was determined as 1 nM.

`c1ccc(CNCc2ccc(CNCc3ccccc3)cc2)cc1` [WZ-8224]: the pIC50 with HXB2 (setting [5]) is 5.09; with Vrs-1 (setting [6]), 5.32; in the series on NL4-3 (setting [7]), 5.20; with Dual, 5.20; with Vrs-3 (setting [8]), 5.24; in the series on SHIV, 5.77. Moreover, in the series with Vrs-2, the pIC50 was 5.37.

For `c1cnc(NCc2ccc(CNc3ncccn3)cc2)nc1` [WZ-40-MS], the pIC50 in the series with HXB2 (setting [5]) is less than 4.82; in the series with Vrs-1 (setting [6]) it was less than 4.82; in the series on NL4-3 (setting [7]) it was less than 4.82; with Dual, less than 4.82; in the series with Vrs-3 (setting [8]), less than 4.82; with SHIV it was approximately 4.92. Also, the pIC50 with Vrs-2 is approximately 5.00.

Consider `Fc1ccccc1NCc1ccc(CNc2ccccc2F)cc1` [WZ-51], for which the pIC50 with HXB2 (setting [5]) is less than 4.82; in the series on Vrs-1 (setting [6]) it was approximately 5.00; in the series on NL4-3 (setting [7]), approximately 4.92; in the series on Dual, approximately 4.92; with Vrs-3 (setting [8]), approximately 5.00; with SHIV, 5.85. Moreover, in the series on Vrs-2, the pIC50 is approximately 5.00.
